Results published in US20080221104A1, “SOLUBLE EPOXIDE HYDROLASE INHIBITORS FOR THE TREATMENT OF RHEUMATOID ARTHRITIS” (Arete Therapeutics, Inc., priority 2006, published 2008).

What was measured:
IL-6 = assay: LPS-induced cytokine production in mice (plasma IL-6); format: in vivo, mice (C57-B6)
Text: Mouse Model of Inflammation Supporting Arthritis Model: Study of effect of Treatments on LPS-Induced Cytokine Production Mice (C57-B6 mice, ˜7-8 wks, male, Charles River Labs, 22-28 g) were quarantined and examined daily during 72 hr quarantine period. Any sign of clinical distress, disease, or injury were noted on a daily basis. […] Accepted mice were transferred to routine maintenance and housed at 5 per cage. Each mouse was identified by an ear tag. The vehicle or pharmaceutically acceptable carrier for test compounds was 20% hydroxypropyl-beta-cyclodextrin for subcutaneous and interperoneal routes (Groups 6-9). For Groups 1-5, the “Vehicle” as used in this study is 0.1% Tween 80 and 1% carboxymethylcellulose (CMC). The 0.1% Tween 80 and 1% carboxymethylcellulose (CMC) was the Vehicle used in the mice in Groups 1 and 2. The compounds were administered with pre-formulated material at a dose of 0.2 mL for 25 g mouse (8.0 mL per kg body weight). […] At the initiation of the study (T=0) animals were weighed and administered with test material or Vehicle. Five 5 mice per treatment per time point group were completed. At the first time point (T=24 hours) the animals were administered with test material or Vehicle again as above. [0.2 mL for 25 g mouse (8.0 mL per kg body weight)] [table] At the time point T=25 hour, animals were administered 2 mL/kg of an LPS solution (5 mg/mL, lipopolysaccharide from Escherichia coli 0111:B4; dissolved in sterile PBS) or vehicle by intraperitoneal route. At this time point, Group 1 mice received Vehicle only as the non-LPS control and Groups 2 through 9 mice received LPS and Vehicle (Group 2) or Test Materials. At the time point T=30 hour, mice in Groups 1 through 9 were anesthetized and exsanguinated into EDTA-treated microtainer tubes. […] The plasma samples was stored at −20° C. until testing. Plasma IL-6 was measured by Luminex cytokine multiplex measurements using beads supplied by Linco.

[1] = Pharmacokinetic study in mice; format: in vivo; settings: mouse plasma; for MRT: read-out: mean resident time (MRT)
Method: All animals were weighed prior to dose administration. […].
Blood (˜0.5 mL) was collected by cardiac puncture at sacrifice and transferred into vacutainer tubes containing sodium heparin at the time points outlined (See FIG. 3). After collection, the blood samples were centrifuged at approximately 1000×g at 2-8° C. for approximately 15 minutes. Each plasma specimen was collected, aliquoted into 2 microcentrifuge tubes, and stored at about −20° C. until analysis by LC/MS (liquid chromatography/mass spectrometry).
The quantitation method for pharmacokinetics is summarized as follows:
To prepare calibration standards for quantitation, the working standard was diluted 1 in 100 into rat plasma to 5 μg/mL (5 μL+495 μL), then diluted further with the same medium by 3-fold serial dilution. A total of seven dilutions were performed yielding eight calibration standards ranging from 2.29 to 5000 ng/mL. Calibration standards 3, 5 and 7 were used as the low, mid and high QC samples, respectively.
Calibration standards, QC samples and study samples were prepared for HPLC injection by precipitating plasma (25 μL) with 3× volumes (75 μL) of ice cold Internal Standard Solution. Following centrifugation at 6100 g for 30 minutes, 40 μL of each supernatant was transferred to a deep-well microplate and diluted with 200 μL of 0.2% formic acid in water.

DBA/1 mice = assay: Collagen induced rheumatoid arthritis (RA) mouse model; format: in vivo, mice (DBA/1)
Method: Mice were immunized with collagen as follows. Collagen (Bovine Type II, 0.05M in acetic acid) was emulsified with CFA (Complete Freund's Adjuvant) by mixing one volume of CFA with an equal amount of the collagen solution. Mixing was continued until a stable, stiff emulsion resulted. To ascertain the desired stability of the emulsion, 1 drop of emulsion was added into a water-filled beaker. The emulsion was considered stable if it remained in the water as a solid. For the collagen IP boost on day 21, the Bovine Type II collagen (Condrex, Seattle, Wash.) was thawed at 4° C. overnight and then mixed 1:1 with the PBS supplied. 200 μL was injected IP into each mouse. Four groups of 10 mice (40 total), aged 7-8 weeks were acclimated a minimum of 5 days prior to start of the study. Animals were housed 5 per cage in microisolators in a 12:12 light dark cycle (all work was done in a BioBubble Hood™). Standard maintenance mouse chow diet (Harlan Teklad 8640) was supplied. Water and food were given ad libitum. High CIA-susceptible DBA/1 mice were utilized which generally develop arthritis 3-5 weeks after immunization with Bovine type TI collagen. Fully developed arthritis, including red and swollen paws, was to be observed 3-5 days after the onset. […] Time of dosing was approximately the same each day following through the end of the study. The mice groups were fed as follows through the duration of the experiment: Group 1) Chow (Referred to as “Vehicle” in FIG. 1). Group 2) Chow (Positive Control-Dexamethasone (DEXA))-Dosed as appropriate. […] The dosing solutions were made on a twice weekly basis and stored at 4° C. between dosing. Measurements were taken twice weekly from boost and included: body weight measurement and Arthritic Score on a scale of 0 to 4. Arthritic score 0-4 (0=normal; 1=1-2 digit swollen and mildly red; 2=redness and swelling in mid-foot or ankle; 3=>3 paws and ankle joints swollen and very red); 4=all joints swollen and animal is not using the paw. At onset of arthritis paw measurements were taken with calipers. A baseline of caliper measurements was taken when all visual assessments were zero. Measurements were taken with an electronic caliper that entered measurements directly to an excel spreadsheet. The study was terminated on Day 42 from initial collagen injection. Cardiac blood was taken from each mouse and plasma prepared in EDTA within 15 min of collection. Plasma was frozen at −20° C. for future analysis of cytokines and eicosatrienoic acids. All left hind paws were removed and stored in formalin for future histology.

sEH = target: T1, sEH (Homo sapiens, UniProt P34913); assay: sEH inhibition, fluorescent CMNPC substrate assay (IC50 determination); format: biochemical; settings: for inhibition at 0.05 µM: tested at 50 nM
T1 sequence (P34913 1-555): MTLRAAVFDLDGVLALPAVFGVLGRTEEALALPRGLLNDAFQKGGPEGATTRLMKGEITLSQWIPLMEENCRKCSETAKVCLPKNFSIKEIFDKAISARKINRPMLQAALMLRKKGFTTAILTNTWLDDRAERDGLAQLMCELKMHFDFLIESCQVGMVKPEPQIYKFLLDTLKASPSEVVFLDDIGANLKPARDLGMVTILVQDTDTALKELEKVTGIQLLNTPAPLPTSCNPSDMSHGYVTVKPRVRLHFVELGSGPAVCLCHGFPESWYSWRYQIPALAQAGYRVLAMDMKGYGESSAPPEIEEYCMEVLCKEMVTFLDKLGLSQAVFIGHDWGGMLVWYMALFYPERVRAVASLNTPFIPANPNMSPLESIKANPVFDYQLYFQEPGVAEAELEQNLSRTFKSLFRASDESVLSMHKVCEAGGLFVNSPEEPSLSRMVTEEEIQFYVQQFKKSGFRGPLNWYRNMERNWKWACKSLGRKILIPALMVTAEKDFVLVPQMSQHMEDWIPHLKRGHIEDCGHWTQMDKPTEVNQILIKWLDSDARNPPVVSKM
Method: The IC50s for each inhibitor were determined according to the following procedure:
The substrate for the reaction was:
Therefore, well A2 would refer to a well in the first row and second column of the plate.
In a black 96 well plate, all the wells are filled with 150 μL of buffer A (Buffer A: Bis/Tris HCl, 25 mM, pH 7.0 plus 0.1 mg/mL BSA). DMSO (2 microliters) was added in well A2 and A3, and then was added 2 μL of inhibitor solution in A1 and A4 through A12. […] The plate was incubated for 5 minutes in the plate reader at 30° C. During incubation, the working solution of substrate was prepared by mixing 3.68 mL of buffer A with 266 μL of 0.5 mM substrate solution. At t=0, 30 μL of working substrate solution was added and readings were started ([S]final: 5 μM). […] The velocities were used to analyze and calculate the IC50s.

[2] = 50 mg/kg PO once a day (QD), Day 20 to Day 27
[3] = 50 mg/kg PO twice a day (BID), Day 28 to Day 42

Fc1ccc(-c2nc3n(c2-c2ccncc2)CCS3)cc1 [SKF86002, reference compound]
inhibition of IL-6 release in response to LPS (IL-6; PO, 100 mg/kg, relative to the vehicle control): 66%

CC(=O)N1CCC(NC(=O)NC23CC4CC(CC(C4)C2)C3)CC1 [Compound 2, 1-(1-acetylpiperidn-4-yl)-3-(adamant-1-yl) urea]
Cmax [1]: 6490 ng/mL
MRT [1]: 1.3 h
inhibition of IL-6 release in response to LPS (IL-6; administered SC, 50 mg/kg): 51%
inhibition of IL-6 release in response to LPS (IL-6; given orally, 50 mg/kg): 51%
arthritis score vs Vehicle (DBA/1 mice; [2]): not significantly different from Vehicle treated animals
arthritis score vs Vehicle (DBA/1 mice; [3]): not significantly different from Vehicle treated animals

CS(=O)(=O)N1CCC(NC(=O)NC23CC4CC(CC(C4)C2)C3)CC1 [Compound 5, 1-[1-(methylsulfonyl)piperidin-4-yl]-3-(adamant-1-yl) urea]
inhibition at 0.05 µM (sEH): 94%

O=C(Nc1ccc(C(F)(F)F)cc1)Nc1cccc(C(=O)N2CCOCC2)c1 [Compound 1, 1-[3-(morpholine-4-carbonyl)-phenyl]-3-(4-trifluoromethyl-phenyl)-urea]
Cmax [1]: 9920 ng/mL
area under the curve (AUC), fold higher than COMPOUND #2 [1]: over 20 fold
MRT [1]: 5.6 h
inhibition of IL-6 release in response to LPS (IL-6; administered SC, 50 mg/kg): 94%
inhibition of IL-6 release in response to LPS (IL-6; given orally, 50 mg/kg): 55%
IC50 (sEH; read-out: IC50 against sEH): 9 nM
inhibition at 0.05 µM (sEH): 82%
arthritis score vs Vehicle (DBA/1 mice; [2]): no significant difference from Vehicle
arthritis score vs Vehicle (DBA/1 mice; [3]): significantly decreased the arthritic score
